Experimental data published in PMC12591484 (PLOS One, 2025).

Assays:
Test in all cases: Effects of cysteine modification with pCMBS on Low/High GABA response ratio
Type in all cases: cell-based
[1] = biological target: T1, α1β3γ2L246C GABAA receptors (Homo sapiens, UniProt P14867+P18507+P28472, L285C); conditions: post- to pre-modification Low/High GABA response ratio
T1 construct: expressed in transfected cells; host or cells: Xenopus oocytes injected with capped mRNAs mixed 1α:1β:5γ
Procedure: (§1) The pCMBS exposure was calculated as concentration × time (e.g. 100 μM × 30 s = 3000 µM × s). […] The pCMBS exposures were varied to generate modification ratio vs. pCMBS exposure curves. Each oocyte was studied at a single pCMBS exposure condition. For each cysteine mutant, 5 oocytes were studied at 4 to 7 pCMBS exposure conditions. The modification ratio vs. pCMBS exposure curves were fit with mono-phasic or bi-phasic logistic equations similar to Eq 1, using non-linear least squares.

[2] = biological target: T2, α1β3γ2I242C GABAA receptors (Homo sapiens, UniProt P14867+P18507+P28472, I281C); conditions: post- to pre-modification Low/High GABA response ratio
T2 construct: expressed in transfected cells; host or cells: Xenopus oocytes injected with capped mRNAs mixed 1α:1β:5γ
T2 sequence (P18507 40-475 I281C, one chain of several): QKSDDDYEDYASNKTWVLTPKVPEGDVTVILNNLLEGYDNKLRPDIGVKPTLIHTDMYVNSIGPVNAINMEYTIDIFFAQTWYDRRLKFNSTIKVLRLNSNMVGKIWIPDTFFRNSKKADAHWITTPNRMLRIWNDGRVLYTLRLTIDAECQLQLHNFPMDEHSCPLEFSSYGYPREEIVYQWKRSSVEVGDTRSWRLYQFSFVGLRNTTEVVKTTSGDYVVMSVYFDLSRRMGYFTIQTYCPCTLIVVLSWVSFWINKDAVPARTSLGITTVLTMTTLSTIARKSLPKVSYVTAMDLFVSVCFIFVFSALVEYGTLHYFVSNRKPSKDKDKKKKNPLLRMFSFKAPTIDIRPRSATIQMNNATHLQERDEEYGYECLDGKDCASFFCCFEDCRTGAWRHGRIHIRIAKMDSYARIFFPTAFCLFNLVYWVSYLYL
Procedure: as §1

[3] = biological target: T3, α1M236Cβ3γ2L GABAA receptors (Homo sapiens, UniProt P14867+P18507+P28472, M263C); conditions: post- to pre-modification Low/High GABA response ratio
T3 construct: expressed in transfected cells; host or cells: Xenopus oocytes injected with capped mRNA, 1α:1β:5γ
T3 sequence (P14867 28-456 M263C, one chain of several): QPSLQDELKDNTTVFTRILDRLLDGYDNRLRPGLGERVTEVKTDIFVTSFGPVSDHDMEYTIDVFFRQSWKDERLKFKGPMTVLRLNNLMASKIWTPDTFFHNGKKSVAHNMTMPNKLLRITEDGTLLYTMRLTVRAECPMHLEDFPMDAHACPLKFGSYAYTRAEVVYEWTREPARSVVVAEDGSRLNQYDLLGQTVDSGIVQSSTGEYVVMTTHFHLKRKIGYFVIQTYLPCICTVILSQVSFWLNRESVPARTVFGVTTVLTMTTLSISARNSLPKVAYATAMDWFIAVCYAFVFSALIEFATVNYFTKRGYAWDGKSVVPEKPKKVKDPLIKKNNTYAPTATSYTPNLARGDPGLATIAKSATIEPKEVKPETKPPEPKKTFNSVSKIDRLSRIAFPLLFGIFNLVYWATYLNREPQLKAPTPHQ
T3 sequence (P18507 40-475, one chain of several): as the sequence (P18507 40-475 I281C, one chain of several) above, with C242I counted along it
Procedure: as §1

[4] = biological target: T4, α1β3L231Cγ2L GABAA receptors (Homo sapiens, UniProt P14867+P18507+P28472, L256C); conditions: post- to pre-modification Low/High GABA response ratio
T4 construct: expressed in transfected cells; host or cells: Xenopus oocytes injected with capped mRNA, 1α:1β:5γ
T4 sequence (P28472 26-473 L256C, one chain of several): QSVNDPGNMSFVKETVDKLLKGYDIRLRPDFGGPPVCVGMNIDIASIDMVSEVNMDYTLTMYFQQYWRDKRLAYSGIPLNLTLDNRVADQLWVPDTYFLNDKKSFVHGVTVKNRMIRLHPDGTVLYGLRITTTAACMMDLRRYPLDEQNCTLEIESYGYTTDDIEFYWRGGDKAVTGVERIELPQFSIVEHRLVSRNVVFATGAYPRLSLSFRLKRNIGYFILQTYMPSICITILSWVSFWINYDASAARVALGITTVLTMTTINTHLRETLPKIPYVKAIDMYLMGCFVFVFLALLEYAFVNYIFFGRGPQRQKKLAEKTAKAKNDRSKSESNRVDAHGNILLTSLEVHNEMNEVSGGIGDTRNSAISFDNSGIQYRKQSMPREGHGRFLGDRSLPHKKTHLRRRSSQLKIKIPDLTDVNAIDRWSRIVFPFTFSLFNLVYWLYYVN
T4 sequence (P18507 40-475, one chain of several): as the sequence (P18507 40-475 I281C, one chain of several) above, with C242I counted along it
Procedure: as §1

[5] = biological target: T5, α1β3M286Cγ2L GABAA receptors (Homo sapiens, UniProt P14867+P18507+P28472, M311C); conditions: post- to pre-modification Low/High GABA response ratio
T5 construct: expressed in transfected cells; host or cells: Xenopus oocytes injected with capped mRNA, 1α:1β:5γ
T5 sequence (P28472 26-473 M311C, one chain of several): as the sequence (P28472 26-473 L256C, one chain of several) above, with C231L, M286C counted along it
T5 sequence (P18507 40-475, one chain of several): as the sequence (P18507 40-475 I281C, one chain of several) above, with C242I counted along it
Procedure: as §1

[6] = biological target: T6, α1S270Cβ3γ2L GABAA receptors (Homo sapiens, UniProt P14867+P18507+P28472, S297C)
T6 construct: expressed in transfected cells; host or cells: Xenopus oocytes injected with capped mRNA, 1α:1β:5γ
T6 sequence (P14867 28-456 S297C, one chain of several): as the sequence (P14867 28-456 M263C, one chain of several) above, with C236M, S270C counted along it
T6 sequence (P18507 40-475, one chain of several): as the sequence (P18507 40-475 I281C, one chain of several) above, with C242I counted along it
Procedure: as §1

[7] = biological target: T7, α1A291Cβ3γ2L GABAA receptors (Homo sapiens, UniProt P14867+P18507+P28472, A318C)
T7 construct: expressed in transfected cells; host or cells: Xenopus oocytes injected with capped mRNA, 1α:1β:5γ
T7 sequence (P14867 28-456 A318C, one chain of several): as the sequence (P14867 28-456 M263C, one chain of several) above, with C236M, A291C counted along it
T7 sequence (P18507 40-475, one chain of several): as the sequence (P18507 40-475 I281C, one chain of several) above, with C242I counted along it
Procedure: as §1

[8] = biological target: T8, α1β3γ2S301C GABAA receptors (Homo sapiens, UniProt P14867+P18507+P28472, S340C); conditions: post- to pre-modification Low/High GABA response ratio
T8 construct: expressed in transfected cells; host or cells: Xenopus oocytes injected with capped mRNAs mixed 1α:1β:5γ
T8 sequence (P14867 28-456): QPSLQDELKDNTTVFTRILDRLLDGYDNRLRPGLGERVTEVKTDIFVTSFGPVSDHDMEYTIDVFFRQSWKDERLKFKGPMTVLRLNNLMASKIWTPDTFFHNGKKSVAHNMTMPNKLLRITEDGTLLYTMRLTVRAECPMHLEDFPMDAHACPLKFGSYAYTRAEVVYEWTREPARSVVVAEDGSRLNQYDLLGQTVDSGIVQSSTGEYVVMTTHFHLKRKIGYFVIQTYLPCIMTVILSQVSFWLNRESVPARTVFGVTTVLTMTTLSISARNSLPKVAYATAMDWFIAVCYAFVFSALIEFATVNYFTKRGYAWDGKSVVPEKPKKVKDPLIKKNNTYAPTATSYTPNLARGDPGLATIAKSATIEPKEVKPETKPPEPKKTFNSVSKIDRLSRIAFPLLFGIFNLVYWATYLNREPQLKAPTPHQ
T8 sequence (P28472 26-473): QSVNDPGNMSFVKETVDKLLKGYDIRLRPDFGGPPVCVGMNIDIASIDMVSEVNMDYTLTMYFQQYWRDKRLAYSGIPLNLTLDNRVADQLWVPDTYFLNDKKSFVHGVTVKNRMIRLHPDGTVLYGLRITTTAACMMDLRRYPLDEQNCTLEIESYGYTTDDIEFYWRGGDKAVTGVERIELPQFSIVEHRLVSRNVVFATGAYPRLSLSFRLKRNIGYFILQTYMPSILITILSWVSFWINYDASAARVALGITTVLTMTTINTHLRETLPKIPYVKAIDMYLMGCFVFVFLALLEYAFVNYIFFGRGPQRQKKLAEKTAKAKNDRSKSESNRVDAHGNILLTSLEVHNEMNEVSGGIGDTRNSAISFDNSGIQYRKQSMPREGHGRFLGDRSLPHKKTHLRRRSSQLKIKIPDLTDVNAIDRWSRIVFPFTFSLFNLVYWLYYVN
T8 sequence (P18507 40-475 S340C): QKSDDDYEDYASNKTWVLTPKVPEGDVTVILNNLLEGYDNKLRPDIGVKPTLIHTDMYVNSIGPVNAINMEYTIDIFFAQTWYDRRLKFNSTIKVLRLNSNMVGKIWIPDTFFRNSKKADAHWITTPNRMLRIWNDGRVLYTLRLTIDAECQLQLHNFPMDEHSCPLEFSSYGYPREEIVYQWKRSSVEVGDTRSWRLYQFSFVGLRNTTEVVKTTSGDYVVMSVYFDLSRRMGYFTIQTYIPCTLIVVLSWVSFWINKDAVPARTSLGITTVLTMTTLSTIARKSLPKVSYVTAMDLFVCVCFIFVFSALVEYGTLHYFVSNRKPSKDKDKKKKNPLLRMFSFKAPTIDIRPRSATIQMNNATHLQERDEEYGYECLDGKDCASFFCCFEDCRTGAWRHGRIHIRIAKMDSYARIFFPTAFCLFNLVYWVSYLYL
Procedure: as §1

T1 sequence (P18507 40-475 L285C, one chain of several): as the sequence (P18507 40-475 I281C, one chain of several) above, with C242I, L246C counted along it

## O=S(=O)([O-])c1cc[c]([Hg][Cl])cc1.[Na+] [pCMBS, para-chloromercuribenzenesulfonic acid sodium salt]
[1]
  Maximal pCMBS Modification Ratio Mean ± SD: 5 ± 1.0
[2]
  Maximal pCMBS Modification Ratio Mean ± SD: 17 ± 4.9
[3]
  Maximal pCMBS Modification Ratio Mean ± SD: 13 ± 1.4
[4]
  Maximal pCMBS Modification Ratio Mean ± SD: 13 ± 1.3
[5]
  Maximal pCMBS Modification Ratio Mean ± SD: 9 ± 3.1
[6]; α1S270C, biphasic effect of increasing pCMBS exposure
  pCMBS exposure with maximum effect on modification ratio: 300 µM x s
[6]; α1S270Cβ3γ2L, post- to pre-modification Low/High GABA response ratio, biphasic
  Maximal pCMBS Modification Ratio Mean ± SD: 11.8 ± 0.77
[7]; 3 mM GABA + 10 µM pCMBS for 90 s
  modification ratio, control modification, single oocyte example (Fig 2A): 4.0
[7]; post- to pre-modification Low/High GABA response ratio
  Maximal pCMBS Modification Ratio Mean ± SD: 4.7 ± 0.61
[8]
  Maximal pCMBS Modification Ratio Mean ± SD: 5.3 ± 0.23
